# pIC50: −log10 of the molar value.
# Experiment: Inhibition of p38 kinase
structure (smiles),measurement,value
Fc1ccc(-c2nc3[nH]ncc3c(-c3ccc(F)cc3)c2-c2ccncc2)cc1,pIC50,6.79

# — ChEMBL document CHEMBL1141453, “Dissection of the recognition properties of p38 MAP kinase. Determination of the binding mode of a new pyridinyl-heterocycle inhibitor family” (J Med Chem, 2007)
